How the values were obtained:
5-HT2c receptors = biological target: T1, 5-HT2c receptors (Rattus norvegicus, UniProt P08909); experiment: Penile erection test in the rat (erections induced by RO 60-0175); assay type: in vivo; conditions: male Wistar rats; RO 60-0175 1.25 mg/kg s.c. 30 min after test compound; erections counted during 30 minutes
T1 construct: Male Wistar rats weighing from 120 to 140 g on the day of the experiment; from tissue; host or cells: whole animal (male Wistar rat), endogenous receptor
T1 sequence (P08909 33-460): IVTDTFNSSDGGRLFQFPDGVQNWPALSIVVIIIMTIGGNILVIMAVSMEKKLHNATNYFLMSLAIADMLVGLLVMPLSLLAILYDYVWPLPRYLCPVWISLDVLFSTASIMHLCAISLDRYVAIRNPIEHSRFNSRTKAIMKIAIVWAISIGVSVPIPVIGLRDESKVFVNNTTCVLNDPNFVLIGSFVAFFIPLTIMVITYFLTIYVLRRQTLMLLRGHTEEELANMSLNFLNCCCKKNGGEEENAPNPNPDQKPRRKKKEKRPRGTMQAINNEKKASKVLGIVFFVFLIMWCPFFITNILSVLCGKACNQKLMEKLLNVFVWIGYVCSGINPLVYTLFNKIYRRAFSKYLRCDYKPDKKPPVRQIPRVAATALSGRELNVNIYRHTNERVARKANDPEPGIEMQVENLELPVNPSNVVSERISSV
Experimental: The test allows the evaluation of the capacity of pharmacological agents to inhibit penile erections caused by the administration of a 5-HT2c selective agonist, RO 60-0175.
Male Wistar rats weighing from 120 to 140 g on the day of the experiment are placed individually into plexiglass observation boxes immediately after having been administered the test compound or the carrier. Thirty minutes later, the animals are administered RO 60-0175 (1.25 mg/kg, subcutaneous route) and the number of erections that occur during the 30 minutes that follow is counted.

Male NMRI mice = experiment: Marble-burying test in the mouse; assay type: in vivo; conditions: 0.5 h, 24 marbles, 30 minutes' free exploration, read-out: effective dose 50 (ED50), inhibition of marble-burying
From the text: This test allows evaluation of the capacity of pharmacological agents to inhibit the spontaneous marble-burying behaviour in mice, the inhibition being predictive of antidepressant and/or anti-impulsive action. Male NMRI mice weighing from 20 to 25 g on the day of the experiment are placed individually in Macrolon boxes containing 5 cm of sawdust and covered with a perforated plexiglass plate. Twenty four “tiger's eye” glass marbles are evenly distributed on the sawdust at the periphery of the box. At the end of 30 minutes' free exploration, the animals are removed from the box and the number of buried marbles is counted.

male CD-1 mice = experiment: Test in the mouse of aggressiveness induced by isolation; assay type: in vivo; conditions: isolated male CD-1 mice; subcutaneous administration; 30 minutes before test; three minutes observation
From the text: The animals used are male CD-1 mice. On arrival, the mice are isolated in individual cages with free access to food and drink. After a period of isolation of one month, pairs of mice that are constant in their aggressiveness are selected by observation of the latent period, the number and the duration of attacks when they are placed in each other's presence. The test takes place once a week. On the day of the test, each mouse of the pair of mice (resident mouse and intruder mouse) is given a subcutaneous injection of carrier (control animals) or of test product (treated animals) in a volume of 10 ml/kg. After 30 minutes, the intruder mouse is introduced into the cage of the resident mouse. The latent period of the first attack and the number and duration of attacks are then measured for a period of three minutes. A product is considered as specifically anti-aggressive when it reduces the number and the duration of attacks at non-sedative doses.

Row | Compound | melting point [°C] | other results
1 | CSc1ccc(NC(=O)Nc2ccc3c(c2)CC(c2c[nH]cn2)C3)cc1.Cl (centres unmarked) | 243 to 245 | 
2 | Cc1cc2c(cc1Cl)N(C(=O)Nc1ccc(N3CCN(CC4COc5ccccc5O4)CC3)cc1)CC2.Cl.Cl (centres unmarked) | 174 to 176 | 
3 | COc1ccc(NC(=O)Nc2ccc(F)c(Cl)c2)cc1N1CCN(CC2COc3ccccc3O2)CC1.Cl (centres unmarked) | 120 to 130 | 
4 | COc1ccc(NC(=O)Nc2ccc(C)c(Cl)c2)cc1N1CCN(C)CC1.Cl | 206 to 208 | 
5 | Cl.Cl.O=C(Nc1cccc(N2CCN(CC3COc4ccccc4O3)CC2)c1)N1CCc2cc(F)c(Cl)cc21 (centres unmarked) | 202 to 204 | 
6 | Cc1ccc(NC(=O)Nc2ccc(C)c(N3CCN(C)CC3)c2)cc1Cl.Cl | 229 to 231 | 
7 | Cc1ccc(NC(=O)Nc2cccc(N3CCN(CC4COc5ccccc5O4)CC3)c2)cc1Cl.Cl (centres unmarked) [Example 6, N-(3-Chloro-4-methylphenyl)-N′-{3-[4-(2,3-dihydro-1,4-benzodioxin-2-ylmethyl)-1-piperazinyl]phenyl}urea hydrochloride] | 180 to 185 | inhibitory dose 50 (ID50), inhibition of penile erections (5-HT2c receptors): 0.7 mg/kg; ED50 (Male NMRI mice): 0.4 mg/kg; inhibitory dose 50 (ID50), number and duration of attacks (male CD-1 mice): 2.5 mg/kg
8 | Cl.Cl.O=C(Nc1cccc(N2CCN(CC3COc4ccccc4O3)CC2)c1)N1CCc2c1ccc1ccccc21 (centres unmarked) | 194 to 196 | 
9 | Cl.O=C(Nc1cccc(N2CCN(CC3COc4ccccc4O3)CC2)c1)Nc1ccc(F)c(Cl)c1 (centres unmarked) | 132 to 136 | 
10 | Cc1ccc(NC(=O)Nc2ccc3c(c2)CC(c2c[nH]cn2)C3)cc1C.Cl (centres unmarked) | 232 to 234 | 
11 | COc1ccc(NC(=O)Nc2ccc(C)c(Cl)c2)cc1N1CCN(CC2COc3ccccc3O2)CC1.Cl (centres unmarked) | 193 to 197 | 
12 | COc1ccc(NC(=O)Nc2ccc(C)c(C)c2)cc1N1CCN(CC2COc3ccccc3O2)CC1.Cl.Cl (centres unmarked) | 234 to 236 | 
13 | Cc1ccc(NC(=O)Nc2cccc(N3CCN(CC4COc5ccccc5O4)CC3)c2)cc1C.Cl (centres unmarked) | 228 to 230 | 

More lines, main results first:

Row | melting point [°C] | Compound | other results
14 | 227 to 229 | Cc1ccc(NC(=O)Nc2cccc(CC3=NCCN3)c2)cc1Cl.Cl | 
15 | 255 to 257 | Cc1ccc(NC(=O)Nc2ccc(Cl)c(NC3=NCCN3)c2)cc1Cl.Cl | 
16 | 237 to 239 | Cc1ccc(NC(=O)Nc2ccc3c(c2)CN(C2=NCCN2)CC3)cc1Cl.Cl | 
17 | 255 to 257 | Cc1ccc(NC(=O)Nc2ccc3c(c2)C(c2c[nH]cn2)CCC3)cc1Cl.Cl (centres unmarked) | 
18 | 100 to 102 | Cc1ccc(NC(=O)Nc2cccc(C(C)C3=NCCN3)c2)cc1Cl.Cl (centres unmarked) | 
19 | 237 to 239 | Cc1ccc(NC(=O)Nc2cccc(CCc3c[nH]cn3)c2)cc1Cl.Cl | 
20 | > 260 | Cc1ccc(NC(=O)Nc2ccc3c(c2)C(c2c[nH]cn2)CCO3)cc1Cl.Cl (centres unmarked) | 
21 | 235 to 237 | Cc1ccc(NC(=O)Nc2ccc3c(c2)CC(c2c[nH]cn2)C3)cc1Cl.Cl (centres unmarked) | 
22 | 212 to 214 | Cc1ccc(NC(=O)Nc2cccc(CCC3=NCCN3)c2)cc1Cl.Cl | 
23 | 252 to 254 | Cc1ccc(NC(=O)Nc2ccc(C)c(NC3=NCCN3)c2)cc1Cl.Cl | 
24 | 180 to 185 | Cc1ccc(NC(=O)Nc2cccc(NC3=NCCN3)c2)cc1Cl.Cl | 
25 | 232 to 233 | Cc1ccc(NC(=O)Nc2cccc(C(C)(C)C3=NCCN3)c2)cc1Cl.Cl | 
26 | 206 to 208 | Cc1ccc(NC(=O)Nc2ccc3c(c2)CC(c2c[nH]cn2)CC3)cc1Cl.Cl (centres unmarked) | 

— patent publication US7026357B2, “Diphenylurea compounds” (Les Laboratoires Servier, priority 2000, dated 2006)
